In patent US12077503B2, “Substituted cyclic amides and their use as herbicides” (FMC CORPORATION, priority 2015, dated 2024):

Columns and labels:
Format in all cases: in vivo
[1] = tested on: barnyardgrass (Echinochloa crus-galli); assay: Test G Pre-Emergence Protocol; settings: Echinochloa crus-galli, pre-emergence, 312 h, evaluated after 13 days; for pest or weed control at 15.625 g/ha: 15.625 g ai/ha, read-out: Barnyard grass damage rating (100=total damage to plant; 0=no damage to plant); for pest or weed control at 62.5 g/ha: 62.5 g ai/ha, 100=total damage to plant, 0=no damage to plant, read-out: plant damage rating, Barnyardgrass; for pest or weed control at 250 g/ha: 250 g ai/ha, read-out: Barnyardgrass damage rating (100=total damage to plant; 0=no damage to plant)
In short: (§1)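 Glasshouse pre-emergence test: soil-sown seeds, sprayed after 1 d at 15.625, 62.5 or 250 g/ha. Conditions 24/16° C day/night, 14 h light, 65% humidity, watering twice daily. Rating 13 d post-spray (100 = total damage).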

[2] = tested on: corn (Zea mays); assay: Test G Pre-Emergence Protocol; settings: Zea mays, pre-emergence, 312 h, evaluated after 13 days; for plant injury at 15.625 g/ha: 15.625 g ai/ha; for plant injury at 15.625 g/ha / plant injury at 250 g/ha: read-out: Corn damage rating (100=total damage to plant; 0=no damage to plant); for plant injury at 62.5 g/ha: 62.5 g ai/ha, 100=total damage to plant, 0=no damage to plant, read-out: plant damage rating, Corn; for plant injury at 250 g/ha: 250 g ai/ha
In short: as §1

[3] = tested on: giant foxtail (Setaria faberi); assay: Test G Pre-Emergence Protocol; settings: Setaria faberi, pre-emergence, 312 h, evaluated after 13 days; for pest or weed control at 15.625 g/ha: 15.625 g ai/ha; for pest or weed control at 15.625 g/ha / pest or weed control at 250 g/ha: read-out: Foxtail, Giant damage rating (100=total damage to plant; 0=no damage to plant); for pest or weed control at 62.5 g/ha: 62.5 g ai/ha, 100=total damage to plant, 0=no damage to plant, read-out: plant damage rating, Foxtail, Giant; for pest or weed control at 250 g/ha: 250 g ai/ha
In short: as §1

[4] = tested on: ivy-leaved morning glory (Ipomoea hederacea); assay: Test G Pre-Emergence Protocol; settings: Ipomoea, pre-emergence, 312 h, evaluated after 13 days; for pest or weed control at 15.625 g/ha: 15.625 g ai/ha, read-out: Morning-glory, Ivy-leaved damage rating (100=total damage to plant; 0=no damage to plant); for pest or weed control at 62.5 g/ha: 62.5 g ai/ha, 100=total damage to plant, 0=no damage to plant, read-out: plant damage rating, Morningglory, Ivy-leaved; for pest or weed control at 250 g/ha: 250 g ai/ha, read-out: Morningglory, Ivy-leaved damage rating (100=total damage to plant; 0=no damage to plant)
In short: as §1

[5] = tested on: redroot pigweed (Amaranthus retroflexus); assay: Test G Pre-Emergence Protocol; settings: Amaranthus retroflexus, pre-emergence, 312 h, evaluated after 13 days; for pest or weed control at 15.625 g/ha: 15.625 g ai/ha; for pest or weed control at 15.625 g/ha / pest or weed control at 250 g/ha: read-out: Pigweed, Redroot damage rating (100=total damage to plant; 0=no damage to plant); for pest or weed control at 62.5 g/ha: 62.5 g ai/ha, 100=total damage to plant, 0=no damage to plant, read-out: plant damage rating, Pigweed, Redroot; for pest or weed control at 250 g/ha: 250 g ai/ha
In short: as §1

[6] = tested on: velvetleaf (Abutilon theophrasti); assay: Test G Pre-Emergence Protocol; settings: Abutilon theophrasti, pre-emergence, 312 h, evaluated after 13 days; for pest or weed control at 15.625 g/ha: 15.625 g ai/ha; for pest or weed control at 15.625 g/ha / pest or weed control at 250 g/ha: read-out: Velvetleaf damage rating (100=total damage to plant; 0=no damage to plant); for pest or weed control at 62.5 g/ha: 62.5 g ai/ha, 100=total damage to plant, 0=no damage to plant, read-out: plant damage rating, Velvetleaf; for pest or weed control at 250 g/ha: 250 g ai/ha
In short: as §1

[7] = tested on: barnyardgrass (Echinochloa crus-galli); assay: Test G Post-Emergence Protocol; settings: Echinochloa crus-galli, post-emergence, 312 h; for pest or weed control at 15.625 g/ha: 15.625 g ai/ha, evaluated after 13 days (100=total damage to plant; 0=no damage to plant), read-out: Barnyardgrass damage rating; for pest or weed control at 62.5 g/ha: 62.5 g ai/ha, read-out: Barnyardgrass damage rating (100=total damage to plant; 0=no damage to plant); for pest or weed control at 62.5 g/ha / pest or weed control at 250 g/ha: evaluated after 13 days; for pest or weed control at 250 g/ha: 250 g ai/ha, read-out: damage to plant, Barnyardgrass (100=total damage to plant; 0=no damage to plant)
In short: (§2)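 Pot-grown seedlings, 8 days old, raised in a glasshouse at 24/16 °C day/night with 14 h light and 65% humidity, were sprayed post-emergence with test compound in acetone/water (50:50) plus 0.5% Tween 20 at 15.625, 62.5 or 250 g/ha. Damage was scored visually 13 days later on a 0–100 scale (100 = total damage).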

[8] = tested on: corn (Zea mays); assay: Test G Post-Emergence Protocol; settings: Zea mays, post-emergence, 312 h; for plant injury at 15.625 g/ha: 15.625 g ai/ha, evaluated after 13 days (100=total damage to plant; 0=no damage to plant), read-out: Corn damage rating; for plant injury at 62.5 g/ha: 62.5 g ai/ha, read-out: Corn damage rating (100=total damage to plant; 0=no damage to plant); for plant injury at 62.5 g/ha / plant injury at 250 g/ha: evaluated after 13 days; for plant injury at 250 g/ha: 250 g ai/ha, read-out: damage to plant, Corn (100=total damage to plant; 0=no damage to plant)
In short: as §2

[9] = tested on: giant foxtail (Setaria faberi); assay: Test G Post-Emergence Protocol; settings: Setaria faberi, post-emergence, 312 h; for pest or weed control at 15.625 g/ha: 15.625 g ai/ha, evaluated after 13 days (100=total damage to plant; 0=no damage to plant), read-out: Foxtail, Giant damage rating; for pest or weed control at 62.5 g/ha: 62.5 g ai/ha, read-out: Foxtail, Giant damage rating (100=total damage to plant; 0=no damage to plant); for pest or weed control at 62.5 g/ha / pest or weed control at 250 g/ha: evaluated after 13 days; for pest or weed control at 250 g/ha: 250 g ai/ha, read-out: damage to plant, Foxtail, Giant (100=total damage to plant; 0=no damage to plant)
In short: as §2

[10] = tested on: ivy-leaved morning glory (Ipomoea hederacea); assay: Test G Post-Emergence Protocol; settings: Ipomoea, post-emergence, 312 h; for pest or weed control at 15.625 g/ha: 15.625 g ai/ha, evaluated after 13 days (100=total damage to plant; 0=no damage to plant), read-out: Morningglory, Ivy-leaved damage rating; for pest or weed control at 62.5 g/ha: 62.5 g ai/ha, read-out: Morningglory, Ivy-leaved damage rating (100=total damage to plant; 0=no damage to plant); for pest or weed control at 62.5 g/ha / pest or weed control at 250 g/ha: evaluated after 13 days; for pest or weed control at 250 g/ha: 250 g ai/ha, read-out: damage to plant, Morningglory, Ivy-leaved (100=total damage to plant; 0=no damage to plant)
In short: as §2

[11] = tested on: redroot pigweed (Amaranthus retroflexus); assay: Test G Post-Emergence Protocol; settings: Amaranthus retroflexus, post-emergence, 312 h; for pest or weed control at 15.625 g/ha: 15.625 g ai/ha, evaluated after 13 days (100=total damage to plant; 0=no damage to plant), read-out: Pigweed, Redroot damage rating; for pest or weed control at 62.5 g/ha: 62.5 g ai/ha, read-out: Pigweed, Redroot damage rating (100=total damage to plant; 0=no damage to plant); for pest or weed control at 62.5 g/ha / pest or weed control at 250 g/ha: evaluated after 13 days; for pest or weed control at 250 g/ha: 250 g ai/ha, read-out: damage to plant, Pigweed, Redroot (100=total damage to plant; 0=no damage to plant)
In short: as §2

[12] = tested on: velvetleaf (Abutilon theophrasti); assay: Test G Post-Emergence Protocol; settings: Abutilon theophrasti, post-emergence, 312 h; for pest or weed control at 15.625 g/ha: 15.625 g ai/ha, evaluated after 13 days (100=total damage to plant; 0=no damage to plant), read-out: Velvetleaf damage rating; for pest or weed control at 62.5 g/ha: 62.5 g ai/ha, read-out: Velvetleaf damage rating (100=total damage to plant; 0=no damage to plant); for pest or weed control at 62.5 g/ha / pest or weed control at 250 g/ha: evaluated after 13 days; for pest or weed control at 250 g/ha: 250 g ai/ha, read-out: damage to plant, Velvetleaf (100=total damage to plant; 0=no damage to plant)
In short: as §2

SMILES	pest or weed control at 15.625 g/ha [1] [%]	pest or weed control at 62.5 g/ha [1] [%]	pest or weed control at 250 g/ha [1] [%]	plant injury at 15.625 g/ha [2] [%]	plant injury at 62.5 g/ha [2] [%]	plant injury at 250 g/ha [2] [%]	pest or weed control at 15.625 g/ha [3] [%]	pest or weed control at 62.5 g/ha [3] [%]	pest or weed control at 250 g/ha [3] [%]	pest or weed control at 15.625 g/ha [4] [%]	pest or weed control at 62.5 g/ha [4] [%]	pest or weed control at 250 g/ha [4] [%]	pest or weed control at 15.625 g/ha [5] [%]	pest or weed control at 62.5 g/ha [5] [%]	pest or weed control at 250 g/ha [5] [%]	pest or weed control at 15.625 g/ha [6] [%]	pest or weed control at 62.5 g/ha [6] [%]	pest or weed control at 250 g/ha [6] [%]	pest or weed control at 15.625 g/ha [7] [%]	pest or weed control at 62.5 g/ha [7] [%]	other results
CN1C[C@@H](c2ccnc(C(F)(F)F)c2)[C@H](C(=O)Nc2cccc(F)c2F)C1=O (racemic) [Compound 1585]	70	90	90	0	80	80	70	80	90	0	30	80	0	0	20	0	0	30	70	80	pest or weed control at 250 g/ha [7]: 70%; plant injury at 15.625 g/ha [8]: 30%; plant injury at 62.5 g/ha [8]: 60%; plant injury at 250 g/ha [8]: 80%; pest or weed control at 15.625 g/ha [9]: 60%; pest or weed control at 62.5 g/ha [9]: 60%; pest or weed control at 250 g/ha [9]: 70%; pest or weed control at 15.625 g/ha [10]: 20%; pest or weed control at 62.5 g/ha [10]: 30%; pest or weed control at 250 g/ha [10]: 70%; pest or weed control at 15.625 g/ha [11]: 0%; pest or weed control at 62.5 g/ha [11]: 20%; pest or weed control at 250 g/ha [11]: 30%; pest or weed control at 15.625 g/ha [12]: 0%; pest or weed control at 62.5 g/ha [12]: 20%; pest or weed control at 250 g/ha [12]: 30%
Cc1nc(C(F)(F)F)ccc1NC(=O)[C@@H]1C(=O)N(C)C[C@H]1c1ccc(C(F)(F)F)cc1 (racemic) [Compound 1566]	0	0	0	0	0	0	0	0	0	0	0	0	0	0	0	0	0	0	0	10	pest or weed control at 250 g/ha [7]: 20%; plant injury at 15.625 g/ha [8]: 0%; plant injury at 62.5 g/ha [8]: 0%; plant injury at 250 g/ha [8]: 0%; pest or weed control at 15.625 g/ha [9]: 0%; pest or weed control at 62.5 g/ha [9]: 0%; pest or weed control at 250 g/ha [9]: 0%; pest or weed control at 15.625 g/ha [10]: 0%; pest or weed control at 62.5 g/ha [10]: 0%; pest or weed control at 250 g/ha [10]: 0%; pest or weed control at 15.625 g/ha [11]: 0%; pest or weed control at 62.5 g/ha [11]: 0%; pest or weed control at 250 g/ha [11]: 0%; pest or weed control at 15.625 g/ha [12]: 0%; pest or weed control at 62.5 g/ha [12]: 0%; pest or weed control at 250 g/ha [12]: 0%
